Results on eleven compounds are retold here after US20100197908A1 (Boehringer Ingelheim International GmbH, priority 2006, published 2010).

Structures can show the parent of a compound that is named as a salt.

This test concerns the target T1, hMCH-1R (Homo sapiens, UniProt Q99705).
T1 construct: expressed in transfected cells; host or cells: CHO/Galpha16 cells (stably transfected), membranes
The test is described as follows: MCH-1 receptor binding test (125I-MCH binding to membranes of hMCH-1R transfected CHO/Galpha16 cells). The settings on record: membranes of CHO/Galpha16 cells stably transfected with human hMCH-1R, 100 pM 125I-MCH. As for the experimental part:
After the incubation the reaction is filtered using a cell harvester through 0.5% PEI treated fibreglass filters (GF/B, Unifilter Packard). The membrane-bound radioactivity retained on the filter is then determined after the addition of scintillator substance (Packard Microscint 20) in a measuring device (TopCount of Packard). […] The analysis of the concentration binding curve is carried out on the assumption of one receptor binding site.

T1 sequence (Q99705 whole entry): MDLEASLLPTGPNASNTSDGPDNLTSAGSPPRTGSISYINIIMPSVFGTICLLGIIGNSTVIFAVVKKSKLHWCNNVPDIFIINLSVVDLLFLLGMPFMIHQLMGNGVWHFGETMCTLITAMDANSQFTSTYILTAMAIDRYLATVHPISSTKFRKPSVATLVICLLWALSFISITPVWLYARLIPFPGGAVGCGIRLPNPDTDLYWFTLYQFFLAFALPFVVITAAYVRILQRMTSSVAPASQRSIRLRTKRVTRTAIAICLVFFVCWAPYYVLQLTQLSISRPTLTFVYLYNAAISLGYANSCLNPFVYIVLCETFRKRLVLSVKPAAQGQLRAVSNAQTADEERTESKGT

Usually IC50 stands for the concentration that gives 50% inhibition. A lower IC50 goes with greater potency in that assay. In turn, `c1ccc(COc2ccc(CCc3ccc(CN4CCOCC4)cc3)nn2)cc1` [Example 1.1, 4-{4-[2-(6-Benzyloxy-pyridazin-3-yl)-ethyl]benzyl}-morpholine] gave an IC50 of 0.004 µM. For the compound `c1ccc(COc2ccc(CCc3ccc(CN4CCCC4)cn3)nn2)cc1` [Example 4.1], the concentration for half-maximal inhibition (IC50) stood at 0.016 µM. This IC50 is about 4-fold higher than that of the compound before.

In turn, `c1ccc(COc2ccc(CCc3ccc(CNCc4cccnc4)cn3)nn2)cc1` [Example 4.2] gave an IC50 of 0.02 µM. To `CC1CCCCN1Cc1ccc(CCc2ccc(OCc3ccccc3)nn2)nc1` (centres unmarked) [Example 4.4] belongs 0.008 µM; to `COCCN(C)Cc1ccc(CCc2ccc(OCc3ccc(F)cc3)nn2)cc1` [Example 10.5], 0.004 µM; to `Fc1ccccc1COc1ccc(CCc2ccc(CN3CCCC3)cc2)nn1` [Example 12.2, 3-(2-Fluoro-benzyloxy)-6-[2-(4-pyrrolidin-1-ylmethyl-phenyl)-ethyl]-pyridazine trifluoroacetate], 0.013 µM. Then `COC1CCN(Cc2ccc(C(=O)Cc3ccc(OCc4ccc(F)cc4)nn3)cc2)CC1` [Example 15.1, 2-[6-(4-Fluoro-benzyloxy)-pyridazin-3-yl]-1-[4-(4-methoxy-piperidin-1-ylmethyl)-phenyl]-ethanone], with 0.009 µM; and `CN(Cc1ccccc1)c1ccc(CCc2ccc(CN3CCCC3)cc2)nn1` [Example 16.2, Benzyl-methyl-{6-[2-(4-pyrrolidin-1-ylmethyl-phenyl)-ethyl]-pyridazin-3-yl}-amine], with 0.59 µM; and `OC1CCN(Cc2ccc(CCc3ccc(OCC4CCCCO4)nn3)cc2)CC1` (centres unmarked) [Example 22.2, 1-(4-{2-[6-(Tetrahydro-pyran-2-ylmethoxy)-pyridazin-3-yl]-ethyl}-benzyl)-piperidin-4-ol], with 0.136 µM.

`CC(=O)N1CCN(CCOc2ccc(CCc3ccc(OCc4ccccc4)nn3)nc2)CC1` [Example 29.10] gave an IC50 of 0.019 µM. `OC1CCN(CCc2ccc(CCc3ccc(OCc4ccccc4)nn3)nc2)CC1` [Example 31.10] displayed an IC50 of 0.004 µM.
